Assay results as given in patent US4533554A, “Quinone derivatives and use” (Takeda Chemical Industries, Ltd., priority 1979, dated 1985).

Experiments:
[1] = test system: SRS-A (slow reacting substance of anaphylaxis) production and release; assay: Inhibitory effect on SRS-A (slow reacting substance of anaphylaxis) production and release in sensitised guinea-pig lung fragments; format: cell-based; details: guinea-pig lung fragments sensitised with egg albumin
Protocol: The inhibitory effect on SRS-A production and release was examined by the method of Orange and Moore (J. Immunol., 116, 392-397, 1976). Quinone derivatives were added to guinea-pig lung fragments sensitised with egg albumin as the antigen, and the amount of SRS-A produced and released as a consequence was assayed by the method of Brocklehust (J. Physiol., 151, 416-435, 1960).

[2] = test system: SHR (spontaneously hypertensive rats); assay: Blood-pressure reducing action in SHR (spontaneously hypertensive rats); format: in vivo, rat; details: oral, L-methyldopa 40 mg/kg, test compound equimolar amount
Protocol: The blood-pressure reducing action of the compounds obtained in the above-mentioned Examples was confirmed with the use of SHR (spontaneously hypertensive rats) in accordance with the method of Watson and Ludden (L. S. Watson & C. T. Ludden in "New Antihypertensive Drugs", A. Scriabin and C. S. Sweet, Ed., Spectrum Publications, New York, 1976, page 87). As a control compound, L-methyldopa was orally administered in a dose of 40 mg/kg, while an equimolar amount of a test compound was orally given, to examine the effect. Results are shown in Table 8, where the marks, (+++), (++), (+) and (±), indicate the blood-pressure reducing actions of 31 to 40 mmHg, 21 to 30 mmHg, 11 to 20 mmHg and not more than 10 mmHg, respectively.

[3] = test system: mortal activity of arachidonic acid in mouse; assay: Suppression of mortal activity of arachidonic acid in mouse; format: in vivo; details: 300 mg/kg oral, 1 hour before arachidonic acid 60 mg/kg i.v., male JCL:ICR mice, read-out: Number of survival mice/Total number of mice (converted)
Protocol: Male mice (four weeks old, JCL:ICR) were used in this experimental. Quinone derivatives were suspended with arabin to administrate per OS. After one hour of the oral administration at a dose of 300 mg/kg of a quinone derivative, an aqueous solution of arachidonic acid (20 mg/ml, pH 8.8) was intravenously administrated at dose of 60 mg/kg of arachidonic acid from mouse tail vein. The suppressive effects were shown in Table 10 by the ratio of the number of survival mice to the total number of mice administrated the test compound.

Question: With `COC1=C(OC)C(=O)C(C/C=C(\C)CC/C=C(\C)CCC(=O)O)=C(C)C1=O` [IIa-10] as the molecule, how does the inhibition at 1 µM ([1]; Cavia porcellus) read?
Answer: 35 ± 6.3%

Question: With `CC(C)=CCC/C(C)=C/CC/C(C)=C/COC(=O)CC/C(C)=C/CC/C(C)=C/CC1=C(C)C(=O)c2ccccc2C1=O` [IIa-21] as the molecule, how does the Blood-pressure reducing action [2] read?
Answer: ++ (21 to 30 mmHg)

Question: `COC1=C(OC)C(=O)C(C/C=C(\C)CC/C=C(\C)CCC(=O)OC/C=C(\C)CCC=C(C)C)=C(C)C1=O` [IIa-19] was tested. Which Blood-pressure reducing action [2] did it give?
Answer: ++ (21 to 30 mmHg)

Question: How did the inhibition at 10 µM ([1]; Cavia porcellus, 10 μM) turn out when `NC1=NN(c2cccc(C(F)(F)F)c2)CC1` [BW-755c, reference compound] was run?
Answer: 4.7 ± 3.7%

Question: What about the inhibition at 100 µM ([1]; Cavia porcellus, 100 μM) of the same molecule?
Answer: 15.3 ± 4.3%

Question: Which responders at 300 mg/kg [3] does the source give for `COC1=C(OC)C(=O)C(C/C=C(\C)CC/C=C(\C)CCC(=O)N2CCOCC2)=C(C)C1=O` [Ia-9] here?
Answer: 40%

Question: With `COC1=C(OC)C(=O)C(C/C=C(\C)CC/C=C(\C)CCC(=O)N(C(=O)NC2CCCCC2)C2CCCCC2)=C(C)C1=O` [Ia-48] as the molecule, how does the responders at 300 mg/kg [3] read?
Answer: 40%

Question: How did the responders at 300 mg/kg [3] turn out when `CC1=C(C/C=C(\C)CC/C=C(\C)CCC(=O)O)C(=O)c2ccccc2C1=O` [IIa-3] was run?
Answer: 40%

Question: What about the Blood-pressure reducing action [2] of the same molecule?
Answer: +++ (31 to 40 mmHg)

Question: What about the inhibition at 10 µM ([1]; Cavia porcellus, 10 μM) of the same molecule?
Answer: 38.6 ± 4.3%

Question: For `COC1=C(OC)C(=O)C(C/C=C(\C)CC/C=C(\C)CC/C=C(\C)CCC(=O)O)=C(C)C1=O` [IIa-12], which Blood-pressure reducing action [2] is on record?
Answer: ++ (21 to 30 mmHg)

Question: What about the inhibition at 1 µM ([1]; Cavia porcellus) of the same molecule?
Answer: 21.8 ± 8.5%

Question: `COc1cc(CN2CCN(C(=O)CC/C(C)=C/CC/C(C)=C/CC/C(C)=C/CC3=C(C)C(=O)c4ccccc4C3=O)CC2)cc(OC)c1OC` [Ia-28] was tested. Which responders at 300 mg/kg [3] did it give?
Answer: 100%

Question: With `COC1=C(OC)C(=O)C(C/C=C(\C)CCC(=O)N2CCN(C/C=C(\C)CC/C=C(\C)CCC=C(C)C)CC2)=C(C)C1=O` [Ia-3] as the molecule, how does the responders at 300 mg/kg [3] read?
Answer: 40%

Question: With `CC1=C(C/C=C(\C)CC/C=C(\C)CC/C=C(\C)CC/C=C(\C)CCC(=O)O)C(=O)c2ccccc2C1=O` [IIa-5] as the molecule, how does the Blood-pressure reducing action [2] read?
Answer: +++ (31 to 40 mmHg)

Question: Which responders at 300 mg/kg [3] does the source give for `COC1=C(OC)C(=O)C(C/C=C(\C)CC/C=C(\C)CCC(N)=O)=C(C)C1=O` [Ia-7] here?
Answer: 40%

Question: Which results are given for `CC1=C(C/C=C(\C)CC/C=C(\C)CC/C=C(\C)CCC(=O)O)C(=O)c2ccccc2C1=O` [IIa-4]?
Answer: Blood-pressure reducing action [2]: +++ (31 to 40 mmHg); inhibition at 1 µM ([1]; Cavia porcellus): 24.3 ± 4.2%

Question: For `C[C@](N)(Cc1ccc(O)c(O)c1)C(=O)O` [L-Methyldopa, reference compound], which Blood-pressure reducing action [2] is on record?
Answer: +++ (31 to 40 mmHg)

Question: Which responders at 300 mg/kg [3] does the source give for `COC1=C(OC)C(=O)C(C/C=C(\C)CC/C=C(\C)CC/C=C(\C)CCC(=O)N2CCN(Cc3ccc4c(c3)OCO4)CC2)=C(C)C1=O` [Ia-11] here?
Answer: 80%

Question: What about the inhibition at 1 µM ([1]; Cavia porcellus) of the same molecule?
Answer: 15 ± 5.6%

Question: `CC1=C(C)C(=O)C(C/C=C(\C)CC/C=C(\C)CC/C=C(\C)CC/C=C(\C)CCC(=O)O)=C(C)C1=O` [IIa-9] was tested. Which Blood-pressure reducing action [2] did it give?
Answer: ++ (21 to 30 mmHg)

Question: `COC1=C(OC)C(=O)C(C/C=C(\C)CC/C=C(\C)CC/C=C(\C)CC/C=C(\C)CC/C=C(\C)CC/C=C(\C)CC/C=C(\C)CC/C=C(\C)CC/C=C(\C)CC/C=C(\C)CCC(=O)O)=C(C)C1=O` [IIa-15] was tested. Which Blood-pressure reducing action [2] did it give?
Answer: ++ (21 to 30 mmHg)

Question: Which responders at 300 mg/kg [3] does the source give for `COC1=C(OC)C(=O)C(C/C=C(\C)CC/C=C(\C)CCC(=O)N2CCN(Cc3cc(OC)c(OC)c(OC)c3)CC2)=C(C)C1=O` [Ia-6] here?
Answer: 40%

Question: And the inhibition at 1 µM ([1]; Cavia porcellus)?
Answer: 26.8 ± 2.2%

Question: For `COC1=C(OC)C(=O)C(C/C=C(\C)CC/C=C(\C)CCC(=O)OC/C=C(\C)CC/C=C(\C)CCC=C(C)C)=C(C)C1=O` [IIa-16], which Blood-pressure reducing action [2] is on record?
Answer: ++ (21 to 30 mmHg)

Question: `COC1=C(OC)C(=O)C(C/C=C(\C)CC/C=C(\C)CC/C=C(\C)CC/C=C(\C)CC/C=C(\C)CC/C=C(\C)CC/C=C(\C)CCC(=O)O)=C(C)C1=O` [IIa-14] was tested. Which Blood-pressure reducing action [2] did it give?
Answer: ++ (21 to 30 mmHg)

Question: How did the Blood-pressure reducing action [2] turn out when `COC1=C(OC)C(=O)C(C/C=C(\C)CC/C=C(\C)CC/C=C(\C)CC/C=C(\C)CCC(=O)O)=C(C)C1=O` [IIa-13] was run?
Answer: ++ (21 to 30 mmHg)

Question: How did the inhibition at 10 µM ([1]; Cavia porcellus, 10 μM) turn out when `CC1=C(C)C(=O)C(C/C=C(\C)CC/C=C(\C)CCC(=O)O)=C(C)C1=O` [IIa-7] was run?
Answer: 40.2 ± 7.3%

Question: For `CC(C)=CCC/C(C)=C/COC(=O)CC/C(C)=C/CC/C(C)=C/CC1=C(C)C(=O)c2ccccc2C1=O` [IIa-20], which Blood-pressure reducing action [2] is on record?
Answer: ++ (21 to 30 mmHg)

Question: “Sodium baikalein phosphate [BSP, reference compound]” was tested. Which “Inhibitory Effect on SRS-A Production (% inhibition of production and release)” value ([1]; 10 μM) did it give?
Answer: 18.7 ± 6.6%

Question: And the “Inhibitory Effect on SRS-A Production (% inhibition of production and release)” value ([1]; 100 μM)?
Answer: 50.8 ± 10.7%
